Legend:
[1] = biological target: ALK2 (aa 147-end) (Homo sapiens (Human), UniProt Q04771); experiment: ALK2 HTRF Assay; format: biochemical; details: HTRF enzymatic assay, 3 μM ATP, 0.5 nM ALK2, 25° C., 2 hr
Protocol: ALK2 (aa 147-end) was obtained from BPS biosciences. The enzymatic assays were conducted in white 384-well polystyrene plates in a final volume of 8 μL. The inhibitors were serially diluted in DMSO and added to the plate wells prior to addition of the other reaction components. The assays were carried out at 25° C. in the assay buffer (50 mM HEPES, pH 7.0, 10% Glycerol, 0.01% Brij50, 10 mM MgCl2, 1 mM EGTA, 5 mM DTT, and 0.01% BSA), containing 50 nM LANCE Ultra ULight™-DNA Topoisomerase 2-alpha peptide (Perkin Elmer TRF0130), and 3 μM ATP. The final concentration of DMSO in the assay was […] and the enzyme concentration was 0.5 nM for ALK2. The reactions were allowed to proceed for 2 hr for ALK2 after which, the reaction was quenched by addition of EDTA at a final concentration of 20 mM along with 1.5 nM LANCE Ultra Europium-anti-phospho-DNA Topoisomerase 2-alpha (Thr1342) antibody (Perkin Elmer TRF0218). The reaction was incubated at 25° C. for 1 hr and read on a PHERAstar FS plate reader (BMG Labtech). IC50 determination was performed by fitting percent control activity versus the log of the inhibitor concentration using the IDBS XLFit and GraphPad Prism 5.0 software.

[2] = system: ALK2 mutant DIPG cell; details: ALK2 mutant DIPG cells; cited from earlier work

ALK2 (aa 147-end), sequence (Q04771 147-509 limits assumed): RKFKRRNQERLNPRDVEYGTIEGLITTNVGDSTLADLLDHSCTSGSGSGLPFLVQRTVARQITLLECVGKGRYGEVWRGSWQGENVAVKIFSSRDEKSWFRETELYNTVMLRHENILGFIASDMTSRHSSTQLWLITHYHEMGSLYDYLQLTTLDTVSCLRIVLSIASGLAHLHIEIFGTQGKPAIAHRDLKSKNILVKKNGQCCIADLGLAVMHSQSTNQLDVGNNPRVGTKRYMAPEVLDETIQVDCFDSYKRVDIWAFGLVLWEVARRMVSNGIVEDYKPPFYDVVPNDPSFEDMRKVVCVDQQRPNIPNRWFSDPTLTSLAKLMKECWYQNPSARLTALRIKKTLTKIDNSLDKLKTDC

Cc1cnn(-c2ccc3c(-c4cnc5cc(-c6ccc([C@]78C[C@H]7CN(C7CCOCC7)C8)cc6)c(C)nn45)ccnc3n2)n1 (stereo in doubt) [Example 4, 2-(4-Methyl-2H-1,2,3-triazol-2-yl)-5-(6-methyl-7-(4-((1S,5R)-3-(tetrahydro-2H-pyran-4-yl)-3-azabicyclo[3.1.0]hexan-1-yl)phenyl)imidazo[1,2-b]pyridazin-3-yl)-1,8-naphthyridine]
IC50 [1]: ≤ 1 nM

CCn1cnc(-c2ccc3c(-c4cnc5cc(-c6ccc([C@@]78C[C@@H]7CN(C7CCOCC7)C8)cc6)c(C)nn45)ccnc3n2)c1 [Example 1, 2-(1-Ethyl-1H-imidazol-4-yl)-5-(6-methyl-7-(4-((1R,5S)-3-(tetrahydro-2H-pyran-4-yl)-3-azabicyclo[3.1.0]hexan-1-yl)phenyl)imidazo[1,2-b]pyridazin-3-yl)-1,8-naphthyridine]
IC50 [1]: ≤ 1 nM

c1ccc2c(-c3cnn4cc(-c5ccc(N6CCNCC6)cc5)cnc34)ccnc2c1 [LDN-19318917]
inhibition of ALK2 mutant DIPG cell viability [2]: significant inhibition

Cc1cnn(-c2ccc3c(-c4cnc5cc(-c6ccc(CN7CC8CCC7CC8)cc6)c(C)nn45)ccnc3n2)n1 [Example 3, 2-(4-(6-Methyl-3-(7-(4-methyl-2H-1,2,3-triazol-2-yl)-1,8-naphthyridin-4-yl)imidazo[1,2-b]pyridazin-7-yl)benzyl)-2-azabicyclo[2.2.2]octane]
IC50 [1]: ≤ 1 nM

CCn1cnc(-c2ccc3c(-c4cnc5cc(-c6ccc(CN7CC8CCC7CC8)cc6)c(C)nn45)ccnc3n2)c1 [Example 2, 2-(4-(3-(7-(1-Ethyl-1H-imidazol-4-yl)-1,8-naphthyridin-4-yl)-6-methylimidazo[1,2-b]pyridazin-7-yl)benzyl)-2-azabicyclo[2.2.2]octane]
IC50 [1]: ≤ 1 nM

— patent US11840546B2, “Imidazopyridazine compounds and uses thereof” (Incyte Corporation, priority 2020, dated 2023)
